# Assay results from patent publication US20230025510A1, “BIARYL ETHER-TYPE QUINAZOLINE DERIVATIVES” (DAIICHI SANKYO COMPANY, LIMITED, priority 2018, published 2023).
# Legend:
# Format in all cases: cell-based
# Ba/F3-Mock cells = test: Cell proliferation suppression test (CellTiter-Glo, GI50), Ba/F3-Mock; conditions: Mus musculus, BaF3, 72 h, 5 ng/mL IL-3, 3 days, N=4
# Experimental: (§1) Cell proliferation suppression test Ba/F3-Mock, Ba/F3-EGFR WT, Ba/F3-EGFR ins. ASV, and Ba/F3-EGFR ins. SVD cell lines were cultured based on a culture medium of 10% FBS-containing RPMI 1640 supplemented with 1.5 ug/mL puromycin, and 5 ng/mL IL-3 and 100 ng/mL of EGF were further added to the culture solution for Ba/F3-Mock and Ba/F3-EGFR WT, respectively. The cells were cultured in a CO2 incubator set at 37° C., 5% CO2. Specimens prepared by dilution were seeded into 384-well tissue culture plates with Echo555 (Labcyte Inc.), and the cells were seeded thereto at 400 cells/well for Ba/F3-Mock, Ba/F3-EGFR WT, and Ba/F3-EGFR ins. SVD and at 200 cells/well for Ba/F3-EGFR ins. ASV (day 0), then they were cultured for an additional 3 days. On the day of the compound addition (day 0) and 3 days after the compound addition (day 3), ATP quantity was measured with CellTiter-Glo (registered trademark) 2.0 (Promega Corporation.), and used as an indicator of cell quantity (N=4). In the test, puromycin-free culture medium was used. Concentrations at which cell proliferation from day 0 to day 3 was inhibited by 50% (GIso) were calculated with EXCEL.
# Ba/F3-EGFR WT cells = test: Cell proliferation suppression test (CellTiter-Glo, GI50), Ba/F3-EGFR WT; conditions: Mus musculus, 72 h, 100 ng/mL EGF, 3 days, N=4
# Experimental: as §1
# [1] = system: Ba/F3-EGFR ins. ASV cells; test: Cell proliferation suppression test (CellTiter-Glo, GI50), Ba/F3-EGFR ins. ASV; conditions: Mus musculus, 72 h, 3 days, N=4
# Experimental: as §1
# [2] = system: Ba/F3-EGFR ins. SVD cells; test: Cell proliferation suppression test (CellTiter-Glo, GI50), Ba/F3-EGFR ins. SVD; conditions: Mus musculus, 72 h, 3 days, N=4
# Experimental: as §1
SMILES,GI50 (Ba/F3-Mock cells) [nM],GI50 (Ba/F3-EGFR WT cells) [nM],GI50 [1] [nM],GI50 [2] [nM]
"COc1cc2ncnc(Nc3ccc(Oc4nc(C(=O)NC(C)(C)C)cs4)cc3F)c2cc1NC(=O)/C=C/CN(C)C [Example 47, N-tert-Butyl-2-{4-[(6-{[(2E)-4-(dimethylamino)but-2-enoyl]amino}-7-methoxyquinazolin-4-yl)amino]-3-fluorophenoxy}-1,3-thiazole-4-carboxamide]",816,145,16.4,73.1
"COc1cc2ncnc(Nc3ccc(Oc4cccc(CC(=O)NC(C)(C)C)c4)cc3F)c2cc1NC(=O)/C=C/CN1CCOCC1 [Example 49, (2E)-N-[4-(4-{3-[2-(tert-Butylamino)-2-oxoethyl]phenoxy}-2-fluoroanilino)-7-methoxyquinazolin-6-yl]-4-(morpholin-4-yl)but-2-enamide]",> 10000,732,20.7,21.1
"CCOc1cc2ncnc(Nc3ccc(Oc4cccc(-c5nnc(C)o5)c4)cc3F)c2cc1NC(=O)/C=C/CN[C@H]1CCOC1 [Example 52, (2E)-N-(7-Ethoxy-4-{2-fluoro-4-[3-(5-methyl-1,3,4-oxadiazol-2-yl)phenoxy]anilino}quinazolin-6-yl)-4-[(3S)-tetrahydrofuran-3-ylamino]but-2-enamide]",2840,245,11.9,19.8
"COc1cc2ncnc(Nc3ccc(Oc4nn(CC(=O)NC(C)(C)C)cc4F)cc3Cl)c2cc1NC(=O)/C=C/CN1CC[C@@H](F)C1 [Example 56, (2E)-N-{4-[4-({1-[2-(tert-Butylamino)-2-oxoethyl]-4-fluoro-1H-pyrazol-3-yl}oxy)-2-chloroanilino]-7-methoxyquinazolin-6-yl}-4-[(3R)-3-fluoropyrrolidin-1-yl]but-2-enamide]",4680,635,8.5,4.6
C=CC(=O)N1CCC(Oc2cc3c(Nc4ccc(Oc5cccc(-c6cn(C)nn6)c5)cc4F)ncnc3cc2OC)CC1 [Example 2],9530,123,13.9,13.7
"C=CC(=O)N1CCC(Oc2cc3c(Nc4ccc(Oc5nc(-c6ccc(OC)nc6)cs5)cc4F)ncnc3cc2OC)CC1 [Example 35, 1-(4-{[4-(2-Fluoro-4-{[4-(6-methoxypyridin-3-yl)-1,3-thiazol-2-yl]oxy}anilino)-7-methoxyquinazolin-6-yl]oxy}piperidin-1-yl)prop-2-en-1-one]",> 10000,213,14.8,12.9
"C=CC(=O)N1CCC(Oc2cc3c(Nc4ccc(Oc5cccc(-c6nnc(C)o6)c5)cc4Cl)ncnc3cc2OC)CC1 [Example 13, 1-{4-[(4-{2-Chloro-4-[3-(5-methyl-1,3,4-oxadiazol-2-yl)phenoxy]anilino}-7-methoxyquinazolin-6-yl)oxy]piperidin-1-yl}prop-2-en-1-one]",8280,854,44.5,54.1
"C=CC(=O)N1CCC(Oc2cc3c(Nc4ccc(Oc5ccn(C(=O)N[C@H](C)C(F)(F)F)n5)cc4F)ncnc3cc2OC)CC1 [Example 24, 3-{3-Fluoro-4-[(7-methoxy-6-{[1-(prop-2-enoyl)piperidin-4-yl]oxy}quinazolin-4-yl)amino]phenoxy}-N-[(2R)-1,1,1-trifluoropropan-2-yl]-1H-pyrazole-1-carboxamide]",6470,42.4,11.8,9.9
"CCOc1cc2ncnc(Nc3ccc(Oc4cccc(-c5nnc(C)o5)c4)cc3F)c2cc1NC(=O)/C=C/CN(C)C [Example 40, (2E)-4-(Dimethylamino)-N-(7-ethoxy-4-{2-fluoro-4-[3-(5-methyl-1,3,4-oxadiazol-2-yl)phenoxy]anilino}quinazolin-6-yl)but-2-enamide]",765,80.1,5.5,32.9
"C=CC(=O)N1CCC(Oc2cc3c(Nc4ccc(Oc5nc(-c6nnc(C(C)C)o6)cs5)cc4F)ncnc3cc2OC)CC1 [Example 33, 1-[4-({4-[2-Fluoro-4-({4-[5-(propan-2-yl)-1,3,4-oxadiazol-2-yl]-1,3-thiazol-2-yl}oxy)anilino]-7-methoxyquinazolin-6-yl}oxy)piperidin-1-yl]prop-2-en-1-one]",> 10000,163,11.3,5.8
"C=CC(=O)N1CCC(Oc2cc3c(Nc4ccc(Oc5ccn(-c6ccnc(OC)c6)n5)cc4F)ncnc3cc2OC)CC1 [Example 9, 1-(4-{[4-(2-Fluoro-4-{[1-(2-methoxypyridin-4-yl)-1H-pyrazol-3-yl]oxy}anilino)-7-methoxyquinazolin-6-yl]oxy}piperidin-1-yl)prop-2-en-1-one]",9590,280,17.1,15.3
"C=CC(=O)N1CCC(Oc2cc3c(Nc4ccc(Oc5nc(-c6cnc(C)c(Cl)c6)cs5)cc4F)ncnc3cc2OC)CC1 [Example 12, 1-(4-{[4-(4-{[4-(5-Chloro-6-methylpyridin-3-yl)-1,3-thiazol-2-yl]oxy}-2-fluoroanilino)-7-methoxyquinazolin-6-yl]oxy}piperidin-1-yl)prop-2-en-1-one]",> 10000,646,44.8,29.8
"[2H]C([2H])([2H])Oc1cc2ncnc(Nc3ccc(Oc4ccn(C(=O)NC(C)(C)C)n4)cc3F)c2cc1OC1CCN(C(=O)C=C)CC1 [Example 20, N-tert-Butyl-3-{3-fluoro-4-[(7-[(^2H3)methyloxy]-6-{[1-(prop-2-enoyl)piperidin-4-yl]oxy}quinazolin-4-yl)amino]phenoxy}-1H-pyrazole-1-carboxamide]",> 10000,171,18.6,9
"COc1cc2ncnc(Nc3ccc(Oc4nn(CC(=O)NC(C)(C)C)cc4F)cc3Cl)c2cc1NC(=O)/C=C/CN(C)C [Example 45, (2E)-N-{4-[4-({1-[2-(tert-Butylamino)-2-oxoethyl]-4-fluoro-1H-pyrazol-3-yl}oxy)-2-chloroanilino]-7-methoxyquinazolin-6-yl}-4-(dimethylamino)but-2-enamide]",2840,412,10,11.6
"C=CC(=O)N1CCC(Oc2cc3c(Nc4ccc(Oc5nc(-c6cnc(C)nc6)cs5)cc4F)ncnc3cc2OC)CC1 [Example 36, 1-(4-{[4-(2-Fluoro-4-{[4-(2-methylpyrimidin-5-yl)-1,3-thiazol-2-yl]oxy}anilino)-7-methoxyquinazolin-6-yl]oxy}piperidin-1-yl)prop-2-en-1-one]",> 10000,377,12,10
"C=CC(=O)N1CCC(Oc2cc3c(Nc4ccc(Oc5ccn(-c6ccnc(Cl)c6)n5)cc4F)ncnc3cc2OC)CC1 [Example 29, 1-(4-{[4-(4-{[1-(2-Chloropyridin-4-yl)-1H-pyrazol-3-yl]oxy}-2-fluoroanilino)-7-methoxyquinazolin-6-yl]oxy}piperidin-1-yl)prop-2-en-1-one]",> 10000,157,11.3,7.9
"[2H]C([2H])([2H])Oc1cc2ncnc(Nc3ccc(Oc4ccn(C(=O)NC(C([2H])([2H])[2H])(C([2H])([2H])[2H])C([2H])([2H])[2H])n4)cc3F)c2cc1OC1CCN(C(=O)C=C)CC1 [Example 21, 3-{3-Fluoro-4-[(7-[(^2H3)methyloxy]-6-{[1-(prop-2-enoyl)piperidin-4-yl]oxy}quinazolin-4-yl)amino]phenoxy}-N-[2-(^2H3)methyl(^2H6)propan-2-yl]-1H-pyrazole-1-carboxamide]",7990,129,12.1,7.3
"C=CC(=O)N1CCC(Oc2cc3c(Nc4ccc(Oc5ccn(C(=O)NC(C)C)n5)cc4F)ncnc3cc2OC)CC1 [Example 6, 3-{3-Fluoro-4-[(7-methoxy-6-{[1-(prop-2-enoyl)piperidin-4-yl]oxy}quinazolin-4-yl)amino]phenoxy}-N-(propan-2-yl)-1H-pyrazole-1-carboxamide]",5660,175,19.2,19.2
"CCOc1cc2ncnc(Nc3ccc(Oc4cccc(-c5nnc(C)o5)c4)cc3F)c2cc1NC(=O)/C=C/CN[C@@H]1CCOC1 [Example 53, (2E)-N-(7-Ethoxy-4-{2-fluoro-4-[3-(5-methyl-1,3,4-oxadiazol-2-yl)phenoxy]anilino}quinazolin-6-yl)-4-[(3R)-tetrahydrofuran-3-ylamino]but-2-enamide]",2950,229,11,16.7
"C=CC(=O)N1CCC(Oc2cc3c(Nc4ccc(Oc5cccc(-c6nnc(C)o6)c5)cc4F)ncnc3cc2OCC)CC1 [Example 18, 1-{4-[(7-Ethoxy-4-{2-fluoro-4-[3-(5-methyl-1,3,4-oxadiazol-2-yl)phenoxy]anilino}quinazolin-6-yl)oxy]piperidin-1-yl}prop-2-en-1-one]",4660,158,12.2,12.2
